Data on two molecules can be found in patent US10561639B2, “Composition comprising a TNFR agonist and at least one thioredoxin inhibitor for use in the treatment of carcinoma” (UNIVERSITY OF HUDDERSFIELD, priority 2013, dated 2020).

The conditions of data set [1]: PX-12 alone; cited from earlier work.
For data set [2], the system named is colorectal carcinoma cells (HCT116). Briefly: Sensolyte caspase activity assay in colorectal carcinoma cells (HCT116). The following applies: 24 hours, PX-12 3 μM, G28-5 10 ug/mL, FIG. 3. The format is cell-based. How it is done: Apoptosis was assessed on the basis of caspase activity detection after 24 hours of treatment using the Sensolyte (Anaspec) assay (Cambridge Biosciences). Results are expressed as relative fluorescence (relative caspase activity) in comparison to negative controls and are representative of two independent experiments in which six technical replicates were carried out for each condition.
Carcinoma cell lines EJ and HCT116 (obtained from the European Collection of Cell Cultures, ECACC) were maintained in a 50:50 (v/v) mixture of Dulbecco's Modified Eagle Medium (DMEM, Sigma) and Roswell Park Memorial Institute 1640 (RPMI, Sigma) (DR), supplemented with 5% Fetal calf serum (FCS, Biosera) and 1% (2 mM) L-Glutamine (Sigma). […] Cells were removed with a 10 mL suspension of DR 5% and counted in single cell suspension using an “improved Neubauer” haemocytometer (VWR).
EJ and HT116 cells were seeded into white 96-well plates (at […] and 6×10^3 cells per well, respectively) and left incubated overnight. […] Cells were then incubated for 48 hours before assessing cell death using the CytoTox-Glo™ cell death detection assay (according to the manufacturer's instructions) on a FLUOstar™ OPTIMA (BMG Labtech) plate reader. Alternatively, after 24 or 48 hours caspase activity was determined using the SensoLyte® Homogenous AFC Caspase-3/7 Assay Kit (Anaspec). […]

In data set [3] the test system is colorectal carcinoma SW480 cells. Briefly: Cytotox-Glo % cell death in colorectal carcinoma SW480 cells. In kind it is cell-based. The note with it: 12 hours, BS-1 5 microg/mL, PX-12 4 microM, FIG. 8. How it is done: Apoptosis was assessed 12 hours later using the Cytotox-Glo assay (Promega). Results were obtained as relative luciferase activity in comparison to negative controls and subsequently percentage (%) cell death values were deduced for each condition according to the manufacturer's instructions. Results are representative of two independent experiments in which six technical replicates were carried out for each condition.

In data set [4] the test system is Bladder carcinoma cells (EJ). Briefly: Cytotox-Glo apoptosis assay in bladder carcinoma cells (EJ). The format is cell-based. The note with it: 48 hours, G28-5 10 ug/mL, PX-12 at minimally cytotoxic concentration, FIG. 1. How it is done: Referring firstly to FIG. 1 where comparative results are shown from Bladder carcinoma cells (EJ) treated with soluble CD40 agonist (agonistic antibody G28-5), the indicated concentration of Trx inhibitor (PX-12), or their combination and results compared to untreated (Control) cells. Apoptosis was assessed 48 hours later using the Cytotox-Glo assay (Promega). Raw data (relative luminescence units) are shown and results are representative of three independent experiments in which six technical replicates were carried out for each condition.
Apoptosis was assessed 48 hours later using the Cytotox-Glo assay (Promega). Results are expressed as relative luciferase in comparison to negative controls and are representative of four independent experiments in which six technical replicates were carried out for each condition.
Carcinoma cell lines EJ and HCT116 (obtained from the European Collection of Cell Cultures, ECACC) were maintained in a 50:50 (v/v) mixture of Dulbecco's Modified Eagle Medium (DMEM, Sigma) and Roswell Park Memorial Institute 1640 (RPMI, Sigma) (DR), supplemented with 5% Fetal calf serum (FCS, Biosera) and 1% (2 mM) L-Glutamine (Sigma). Cells were incubated at 37° C. in a humidified atmosphere of 5% CO2 in air. […] Cells were removed with a 10 mL suspension of DR 5% and counted in single cell suspension using an “improved Neubauer” haemocytometer (VWR). […]

Data set [5] has as its system phospho-JNK and Bax in ASK-1 knock-out EJ cell derivatives ('S18'). Briefly: Immunoblotting of phospho-JNK and Bax after mCD40L. In kind it is cell-based. The following applies: cells with ASK-1 knockdown (S18), FIGS. 6a and 6b. How it is done:
(§1) The cells were treated with mCD40L and apoptosis was assessed 48 hours later using the Cytotox-Glo assay (Promega) and by measuring levels of phospho-JNK and Bax using immune-blotting. The images from the blotting can be seen in FIGS. 6a and 6b.
In general terms: A western blot detects proteins with antibodies after separation by electrophoresis.

Data set [6] relates to ASK-1 protein knock-out EJ cell derivatives ('S18'). The experiment in a line: Cytotox-Glo apoptosis assay in ASK-1 knock-out EJ derivatives treated with mCD40L. The following applies: S18 cells versus EJ cells, 48 hours, FIG. 5. In kind it is cell-based. How it is done:
as §1

For the molecule `CCC(C)SSc1ncc[nH]1` (stereo not drawn) [PX-12, 2-[(1-Methylpropyl)dithio]-1H-imidazole], the “doses required for conventional PX-12 treatment to obtain cytotoxicity” value in data set [1] was 10 to 25 µg/mL. In addition, in data set [2], the “cytotoxicity / apoptosis by caspase activation (relative caspase activity)” value is on record as “some cytotoxicity”. Further, the “pro-apoptotic activity / cytotoxicity (% Cell Death)” value in data set [3] is listed as “some but not extensive cytotoxicity”. The “cytotoxicity / apoptosis (Cytotox-Glo, relative luminescence units)” value in data set [4] is given as “little”.

B1: mCD40L: membrane CD40 ligand delivered by co-culture with growth-arrested third-party cells expressing mCD40L (protein, UniProt P29965 1-261, looked up)
chain: MIETYNQTSPRSAATGLPISMKIFMYLLTVFLITQMIGSALFAVYLHRRLDKIEDERNLHEDFVFMKTIQRCNTGERSLSLLNCEEIKSQFEGFVKDIMLNKEETKKENSFEMQKGDQNPQIAAHVISEASSKTTSVLQWAEKGYYTMSNNLVTLENGKQLTVKRQGLYYIYAQVTFCSNREASSQAPFIASLCLKSPGRFERILLRAANTHSSAKPCGQQSIHLGGVFELQPGASVFVNVTDPSQVSHGTGFTSFGLLKL
modifications: full-length expressed on growth-arrested feeder cells
As for B1, the “p-JNK and Bax induction” value in data set [5] was “lack of p-JNK and Bax induction”. In data set [6], the “apoptosis after mCD40L in ASK-1 knockdown cells (Cytotox Glo)” value was “inhibition of apoptosis”.
